Structures are written as SMILES.

Experiment [1] deals with T1, recombinant human cannabinoid receptor CB1 (Homo sapiens, UniProt P21554).
T1 construct: (cDNA clone) CNR01L000
Description: Cannabinoid receptor radioligand binding assay, [3H]-CP 55,940 displacement, hCB1. An outline of the steps:
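Displacement of 0.5 nM [3H]-CP 55,940 (1 μM unlabeled CP 55,940 for nonspecific) measured by filtration and scintillation counting. Binding ran 90 min at room temperature in pH 7.5 Tris buffer with 0.1% fatty-acid-free BSA, using recombinant hCB1 HEK-293 membranes at 2-10 μg protein.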

The next experiment concerns the target T2, human CB1 receptors (Homo sapiens, UniProt P21554).
T2 construct: (cDNA clone) CNR01L000
The experiment in a line: cAMP assay in HEK-293 cells, hCB1 agonist. It is filed as cell-based. The settings on record: inhibition of forskolin-stimulated cAMP, HEK-293 cells; for EC50: read-out: hCB1 EC50 (cAMP ag). An outline of the steps:
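Agonist EC50 taken as concentration giving half inhibition of forskolin-driven cAMP, normalized to forskolin maximum, from sigmoidal curves. Whole HEK-293 cells stably expressing hCB1, in HEPES/BSA-containing HBSS, exposed 30 min at 37° C. to compound with forskolin (90 uM in 3× dilution); cAMP read after lysis.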

T1 sequence (P21554 whole entry): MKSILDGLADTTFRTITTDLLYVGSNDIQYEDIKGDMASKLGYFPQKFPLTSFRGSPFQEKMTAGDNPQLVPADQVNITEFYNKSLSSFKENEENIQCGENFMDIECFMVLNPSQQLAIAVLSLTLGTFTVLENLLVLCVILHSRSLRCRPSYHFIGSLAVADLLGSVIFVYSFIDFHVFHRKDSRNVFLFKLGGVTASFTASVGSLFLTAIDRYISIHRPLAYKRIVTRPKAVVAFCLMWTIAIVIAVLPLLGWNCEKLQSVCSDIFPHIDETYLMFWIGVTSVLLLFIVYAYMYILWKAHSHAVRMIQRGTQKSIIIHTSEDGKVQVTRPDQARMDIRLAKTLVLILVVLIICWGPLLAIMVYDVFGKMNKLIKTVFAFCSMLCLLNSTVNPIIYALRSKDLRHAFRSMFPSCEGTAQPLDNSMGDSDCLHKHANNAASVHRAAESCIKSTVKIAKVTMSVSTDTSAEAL
T2 sequence (P21554 whole entry): as above

Turning to `Cc1cc2cc(C(=O)c3cccc(Cl)c3)sc2n1CCN1CCOCC1` [Compound 4, (3-Chlorophenyl)(5-methyl-6-(2-morpholinoethyl)-6H-thieno[2,3-b]pyrrol-2-yl)methanone], the IC50 in experiment [1] lay within 1 to 10 µM. Moreover, the “hCB1 EC50 (cAMP ag, nM)” value on human CB1 receptors is “NS (NS means “Not Significant,” which means less than 30% agonist activity when compared to the positive control.)”.
For `Cc1cc2cc(C(=O)c3ccccc3)sc2n1CCN1CCOCC1` [Compound 7, (5-Methyl-6-(2-morpholinoethyl)-6H-thieno[2,3-b]pyrrol-2-yl)(phenyl)methanone], in experiment [1], the IC50 was 1 to 10 µM. At human CB1 receptors, the EC50 was 1000 to 10000 nM.
On the same counts, the results for `Cc1cc2cc(C(=O)c3ccc(Cl)cc3Cl)sc2n1CCN1CCOCC1` [Compound 10, (2,4-Dichlorophenyl)(5-methyl-6-(2-morpholinoethyl)-6H-thieno[2,3-b]pyrrol-2-yl)methanone] are 0.1 to 1 µM and 100 to 1000 nM.
On the same counts, the results for `Cc1ccccc1C(=O)c1cc2cc(C)n(CCN3CCOCC3)c2s1` [Compound 12, (5-Methyl-6-(2-morpholinoethyl)-6H-thieno[2,3-b]pyrrol-2-yl)(o-tolyl)methanone] are 1 to 10 µM and 100 to 1000 nM.
For `CCn1c(C)cc2cc(C(=O)c3cccc(Cl)c3Cl)sc21` [Compound 19, (2,3-Dichlorophenyl)(6-ethyl-5-methyl-6H-thieno[2,3-b]pyrrol-2-yl)methanone], the 50% inhibitory concentration (IC50) in experiment [1] was greater than 10 µM. For the same compound, the “hCB1 EC50 (cAMP ag, nM)” value at human CB1 receptors is “NS (NS means “Not Significant,” which means less than 30% agonist activity when compared to the positive control.)”.
For `CCS(=O)(=O)n1c(C)cc2cc(C(=O)c3cccc(Cl)c3Cl)sc21` [Compound 25, (2,3-Dichlorophenyl)(6-(ethylsulfonyl)-5-methyl-6H-thieno[2,3-b]pyrrol-2-yl)methanone], in experiment [1], the IC50 was 1 to 10 µM. In addition, the “hCB1 EC50 (cAMP ag, nM)” value at human CB1 receptors is given as “NS (NS means “Not Significant,” which means less than 30% agonist activity when compared to the positive control.)”.
Regarding `COc1cccc(C(=O)c2cc3cc(C)n(CCN4CCOCC4)c3s2)c1` [Compound 26, (3-Methoxyphenyl)(5-methyl-6-(2-morpholinoethyl)-6H-thieno[2,3-b]pyrrol-2-yl)methanone], in experiment [1], the IC50 was in the range of 0.1 to 1 µM. In addition, the 50% effective concentration (EC50) at human CB1 receptors lay within 100 to 1000 nM.
Take `Cc1cc2cc(C(=O)c3cccc(Cl)c3Cl)sc2n1CC1CCOCC1` [Compound 31, (2,3-Dichlorophenyl)(5-methyl-6-((tetrahydro-2H-pyran-4-yl)methyl)-6H-thieno[2,3-b]pyrrol-2-yl)methanone]: in experiment [1], the IC50 is 0.1 to 1 µM. Also, on human CB1 receptors, the “hCB1 EC50 (cAMP ag, nM)” value is “NS (NS means “Not Significant,” which means less than 30% agonist activity when compared to the positive control.)”.
Turning to `Cc1cc2cc(Cc3cccc(Cl)c3Cl)sc2n1CCN1CCOCC1` [Compound 32, 4-(2-(2-(2,3-Dichlorobenzyl)-5-methyl-6H-thieno[2,3-b]pyrrol-6-yl)ethyl)morpholine], the IC50 in experiment [1] lay within 1 to 10 µM. The EC50 on human CB1 receptors fell in the range of 1000 to 10000 nM.
As to `Cc1cc2cc(C(=O)c3cccc(Cl)c3Cl)sc2n1CCCNS(C)(=O)=O` [Compound 37, N-(3-(2-(2,3-Dichlorobenzoyl)-5-methyl-6H-thieno[2,3-b]pyrrol-6-yl)propyl)methanesulfonamide], the IC50 in experiment [1] is greater than 10 µM. Besides, at human CB1 receptors, the “hCB1 EC50 (cAMP ag, nM)” value was “NS (NS means “Not Significant,” which means less than 30% agonist activity when compared to the positive control.)”.
Take `Cc1cc2cc(C(=O)c3cccc(Cl)c3Cl)sc2n1S(=O)(=O)C(C)C` [Compound 38, (2,3-Dichlorophenyl)(6-(isopropylsulfonyl)-5-methyl-6H-thieno[2,3-b]pyrrol-2-yl)methanone]: in experiment [1], the IC50 lay in the range of 1 to 10 µM. Moreover, the “hCB1 EC50 (cAMP ag, nM)” value at human CB1 receptors is reported as “NS (NS means “Not Significant,” which means less than 30% agonist activity when compared to the positive control.)”.
On the same counts, the results for `CCS(=O)(=O)n1c(C)cc2cc(C(=O)c3ccccc3Cl)sc21` [Compound 42, (2-Chlorophenyl)(6-(ethylsulfonyl)-5-methyl-6H-thieno[2,3-b]pyrrol-2-yl)methanone] are 1 to 10 µM and “NS (NS means “Not Significant,” which means less than 30% agonist activity when compared to the positive control.)”.
On the same counts, the results for `CCS(=O)(=O)n1c(C)cc2cc(C(=O)c3cccnc3Cl)sc21` [Compound 43, (2-Chloropyridin-3-yl)(6-(ethylsulfonyl)-5-methyl-6H-thieno[2,3-b]pyrrol-2-yl)methanone] are greater than 10 µM and “NS (NS means “Not Significant,” which means less than 30% agonist activity when compared to the positive control.)”.
Consider `COc1ccc(C(=O)c2cc3cc(C)n(CCCNS(C)(=O)=O)c3s2)cc1` [Compound 44, N-(3-(2-(4-methoxybenzoyl)-5-methyl-6H-thieno[2,3-b]pyrrol-6-yl)propyl)methanesulfonamide], for which the IC50 in experiment [1] lay in the range of 1 to 10 µM. On human CB1 receptors, the “hCB1 EC50 (cAMP ag, nM)” value is “NS (NS means “Not Significant,” which means less than 30% agonist activity when compared to the positive control.)”.
As for `COc1ncccc1C(=O)c1cc2cc(C)n(CCN3CCOCC3)c2s1` [Compound 47, (2-Methoxypyridin-3-yl)(5-methyl-6-(2-morpholinoethyl)-6H-thieno[2,3-b]pyrrol-2-yl)methanone], the IC50 in experiment [1] was greater than 10 µM. Moreover, on human CB1 receptors, the “hCB1 EC50 (cAMP ag, nM)” value is reported as “NS (NS means “Not Significant,” which means less than 30% agonist activity when compared to the positive control.)”.
For `COc1ccc(C(=O)c2cc3cc(C)n(S(=O)(=O)N(C)C)c3s2)cc1` [Compound 51, 2-(4-Methoxybenzoyl)-N,N,5-trimethyl-6H-thieno[2,3-b]pyrrole-6-sulfonamide] the same measures were 1 to 10 µM and “NS (NS means “Not Significant,” which means less than 30% agonist activity when compared to the positive control.)”.
For `Cc1cc2cc(C(=O)c3ccc(F)cc3)sc2n1CCN1CCOCC1` [Compound 54, (4-Fluorophenyl)(5-methyl-6-(2-morpholinoethyl)-6H-thieno[2,3-b]pyrrol-2-yl)methanone] the same measures were 1 to 10 µM and “NS (NS means “Not Significant,” which means less than 30% agonist activity when compared to the positive control.)”.
For `CCS(=O)(=O)n1c(C)cc2cc(C(=O)c3ccc(OC)cc3)sc21` [Compound 56, (6-(Ethylsulfonyl)-5-methyl-6H-thieno[2,3-b]pyrrol-2-yl)(4-methoxyphenyl)methanone], the 50% inhibitory concentration (IC50) in experiment [1] is greater than 10 µM. Further, the “hCB1 EC50 (cAMP ag, nM)” value on human CB1 receptors was “NS (NS means “Not Significant,” which means less than 30% agonist activity when compared to the positive control.)”.
On the same counts, the results for `COc1ccc(C(=O)c2cc3cc(C)n(CCN4CCOCC4)c3s2)cn1` [Compound 58, (6-Methoxypyridin-3-yl)(5-methyl-6-(2-morpholinoethyl)-6H-thieno[2,3-b]pyrrol-2-yl)methanone] are greater than 10 µM and “NS (NS means “Not Significant,” which means less than 30% agonist activity when compared to the positive control.)”.
On the same counts, the results for `Cc1cc2cc(C(=O)c3ccc(C(F)(F)F)cc3)sc2n1CCN1CCOCC1` [Compound 60, (5-Methyl-6-(2-morpholinoethyl)-6H-thieno[2,3-b]pyrrol-2-yl)(4-(trifluoromethyl)phenyl)methanone] are greater than 10 µM and “NS (NS means “Not Significant,” which means less than 30% agonist activity when compared to the positive control.)”.

As usually defined, the IC50 is the concentration needed to halve the response being measured. Usually EC50 stands for the concentration at which the effect is half-maximal.

The values are drawn from patent US20130029970A1 (priority 2009, published 2013).
